Measured values from publication PMC7217150, “Synthesis, Modification, and Biological Evaluation of a Library of Novel Water‐Soluble Thiopyridone‐Based Organometallic Complexes and Their Unexpected (Biological) Behavior” (Chemistry (Weinheim an Der Bergstrasse, Germany), 2020).
Read-outs that look alike come from different tables or passages of the source.

Columns and labels:
HCT‐116 = HCT‐116 multicellular spheroids, 96 h drug exposure
Description: (§1) A549, CH1/PA‐1 and SW480 cells were grown in MEM supplemented with 10 % fetal calf serum (FCS; from Biowest), 1 mM sodium pyruvate, 4 mM L‐glutamine and 1 % v/v nonessential amino acids (from 100×solution) and L‐glutamine. HCT‐116 cells were maintained in McCoy's 5a medium supplemented with 10 % FCS and L‐glutamine. Adherent monolayer cultures were grown in 75 cm^2 flasks. For spheroid culture, A549, CH1/PA‐1 and HCT‐116 cells were harvested from culture flasks by trypsinization, resuspended in their respective supplemented medium and seeded in ultra‐low attachment round‐bottom 96‐well plates (Corning Costar) at a density of 500 viable cells per well. Plates were incubated for 96 h to allow spheroid formation prior to use for the tests. All cultures were incubated in a humidified incubator at 37 °C with 5 % CO2.
(§2) Cytotoxicity in multicellular spheroids was determined by the fluorimetric resazurin assay. […] After incubation for 96 h, 20 μL of a 440 μM resazurin sodium salt solution in PBS were added to each well, and the plates were incubated for further 16 h. Fluorescence was measured with a Synergy HT reader (BioTek) with an excitation wavelength of 530 nm and emission wavelength of 590 nm. For both assays, at least three independent experiments (or two in case of poor activity) were performed, each with triplicates per concentration level, and the 50 % inhibitory concentrations (IC50) relative to untreated controls were interpolated from concentration‐effect curves.

A549 [1] = conditions: A549 multicellular spheroids, 96 h drug exposure
Description: as §1, §2

CH1/PA‐1 [2] = conditions: CH1/PA‐1 multicellular spheroids, 96 h drug exposure
Description: as §1, §2

[3] = pH 7.2
Description: Stock solutions containing the desired complex in DMSO (5 mM) were diluted with phosphate buffer (pH 7.2) to a final concentration of […] compound in 1 % DMSO/20 mM buffer and directly analyzed by four different isocratic UHPLC runs (Δ=5 %). The lipophilicity parameters logkw and lipophilicity indices φ0 were calculated according to literature.7, 37

A549 [4] = experiment: MTT cytotoxicity assay, monolayer culture; format: cell-based, human; conditions: exposure time 96 h, means ± SDs
SW480 [5] = experiment: MTT cytotoxicity assay, monolayer culture; format: cell-based, human
CH1/PA‐1 [6] = experiment: MTT cytotoxicity assay, monolayer culture; format: cell-based, human; conditions: CH1/PA‐1, MTT assay, exposure time 96 h, means ± SDs
SW480 [7] = experiment: Cell cycle distribution, flow cytometry with propidium iodide; format: cell-based, human; conditions: for Cell cycle distribution G1, % / Cell cycle distribution G2/M, % / Cell cycle distribution S, %: 24 h, mean ± SD; for Relative change in cell cycle distribution G1, % / Relative change in cell cycle distribution G2/M, % / Relative change in cell cycle distribution S, %: difference to untreated control
How it was run: (§3)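 CH1/PA-1 and SW480 cells were allowed to attach for 24 h, then exposed continuously to compounds for 24 h at 37 °C. Nuclei were stained overnight at 4 °C with propidium iodide (50 μg mL^−1) in Triton/citrate buffer. 5×10^3 cells were analysed by flow cytometry, with G1/S/G2/M fractions fitted by the Watson Pragmatic model.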

CH1/PA‐1 [8] = experiment: as above; format: cell-based, human; conditions: for Cell cycle distribution G1, % / Cell cycle distribution G2/M, % / Cell cycle distribution S, %: 24 h, mean ± SD; for Relative change in cell cycle distribution G1, % / Relative change in cell cycle distribution G2/M, % / Relative change in cell cycle distribution S, %: difference to untreated control
How it was run: as §3

SW480 cells = conditions: for Cellular accumulation: ICP‐MS, 2 h exposure, 50 μM
[9] = SW480, MTT assay, exposure time 96 h, means ± SDs

With `CC1=C2[O][Rh+]([Cl])[S]=C2C=CN1C.Cc1c(C)c(C)[c-](C)c1C` [Compound 5 a, Chlorido[1,2‐dimethyl‐3‐oxo‐κO‐pyridine‐4(1H)‐thionato‐κS](η^5‐1,2,3,4,5‐pentamethylcyclopentadienyl)rhodium(III)] the IC50 (HCT‐116) was 140 ± 20 µM, the IC50 (A549 [1]) was 367 ± 24 µM and the IC50 (CH1/PA‐1 [2]) was 144 ± 7 µM. For the same molecule, the “φ0 (chromatographic lipophilicity index)” value [3] was 5.91, the IC50 (A549 [4]) was 117 ± 19 µM and the IC50 (SW480 [5]; [9]) was 5.5 ± 1.1 µM. The IC50 (SW480 [5]; SW480, as listed in Table 3) was 5.54 ± 1.07 µM, the IC50 (CH1/PA‐1 [6]) was 11 ± 2 µM and the “Cell cycle distribution G1, %” value (SW480 [7]; SW480, 5 µM) was 44 ± 1%. For the same molecule, the “Cell cycle distribution G2/M, %” value (SW480 [7]; SW480, 5 µM) was 26 ± 2%, the “Cell cycle distribution S, %” value (SW480 [7]; SW480, 5 µM) was 30 ± 4% and the “Relative change in cell cycle distribution G1, %” value (SW480 [7]; SW480, 5 µM) was -4%. The “Relative change in cell cycle distribution G2/M, %” value (SW480 [7]; SW480, 5 µM) was 7%, the “Relative change in cell cycle distribution S, %” value (SW480 [7]; SW480, 5 µM) was -3% and the “Cell cycle distribution G1, %” value (SW480 [7]; SW480, 10 µM) was 38 ± 4%. The “Cell cycle distribution G2/M, %” value (SW480 [7]; SW480, 10 µM) was 20 ± 4%, the “Cell cycle distribution S, %” value (SW480 [7]; SW480, 10 µM) was 42 ± 1% and the “Relative change in cell cycle distribution G1, %” value (SW480 [7]; SW480, 10 µM) was -10%. For the same molecule, the “Relative change in cell cycle distribution G2/M, %” value (SW480 [7]; SW480, 10 µM) was 1%, the “Relative change in cell cycle distribution S, %” value (SW480 [7]; SW480, 10 µM) was 9% and the “Cell cycle distribution G1, %” value (SW480 [7]; SW480, 20 µM) was 46 ± 3%. For the same molecule, the “Cell cycle distribution G2/M, %” value (SW480 [7]; SW480, 20 µM) was 12 ± 1%, the “Cell cycle distribution S, %” value (SW480 [7]; SW480, 20 µM) was 42 ± 2% and the “Relative change in cell cycle distribution G1, %” value (SW480 [7]; SW480, 20 µM) was -2%. For the same molecule, the “Relative change in cell cycle distribution G2/M, %” value (SW480 [7]; SW480, 20 µM) was -7%, the “Relative change in cell cycle distribution S, %” value (SW480 [7]; SW480, 20 µM) was 9% and the “decrease in G1 phase” value (SW480 [7]; SW480 cells, 10 μM) was 10%. For the same molecule, the “Cell cycle distribution G1, %” value (CH1/PA‐1 [8]; CH1/PA-1, 10 µM) was 28 ± 1%, the “Cell cycle distribution G2/M, %” value (CH1/PA‐1 [8]; CH1/PA-1, 10 µM) was 28 ± 5% and the “Cell cycle distribution S, %” value (CH1/PA‐1 [8]; CH1/PA-1, 10 µM) was 44 ± 5%. For the same molecule, the “Relative change in cell cycle distribution G1, %” value (CH1/PA‐1 [8]; CH1/PA-1, 10 µM) was -12%, the “Relative change in cell cycle distribution G2/M, %” value (CH1/PA‐1 [8]; CH1/PA-1, 10 µM) was 4% and the “Relative change in cell cycle distribution S, %” value (CH1/PA‐1 [8]; CH1/PA-1, 10 µM) was 8%. For the same molecule, the “Cell cycle distribution G1, %” value (CH1/PA‐1 [8]; CH1/PA-1, 20 µM) was 27 ± 5%, the “Cell cycle distribution G2/M, %” value (CH1/PA‐1 [8]; CH1/PA-1, 20 µM) was 32 ± 4% and the “Cell cycle distribution S, %” value (CH1/PA‐1 [8]; CH1/PA-1, 20 µM) was 41 ± 5%. The “Relative change in cell cycle distribution G1, %” value (CH1/PA‐1 [8]; CH1/PA-1, 20 µM) was -13%, the “Relative change in cell cycle distribution G2/M, %” value (CH1/PA‐1 [8]; CH1/PA-1, 20 µM) was 8% and the “Relative change in cell cycle distribution S, %” value (CH1/PA‐1 [8]; CH1/PA-1, 20 µM) was 5%. The “Cell cycle distribution G1, %” value (CH1/PA‐1 [8]; CH1/PA-1, 40 µM) was 26 ± 6%, the “Cell cycle distribution G2/M, %” value (CH1/PA‐1 [8]; CH1/PA-1, 40 µM) was 31 ± 2% and the “Cell cycle distribution S, %” value (CH1/PA‐1 [8]; CH1/PA-1, 40 µM) was 42 ± 1%. The “Relative change in cell cycle distribution G1, %” value (CH1/PA‐1 [8]; CH1/PA-1, 40 µM) was -14%, the “Relative change in cell cycle distribution G2/M, %” value (CH1/PA‐1 [8]; CH1/PA-1, 40 µM) was 7% and the “Relative change in cell cycle distribution S, %” value (CH1/PA‐1 [8]; CH1/PA-1, 40 µM) was 6%. The “shift of cell cycle distribution towards S and G2/M phases in total” value (CH1/PA‐1 [8]; CH1/PA‐1 cells, 40 μM) was “up to 14%” and the Cellular accumulation (SW480 cells) was 118±35 fg/cell.

`CC1=C2[O][Ir+]([Cl])[S]=C2C=CN1C.Cc1c(C)c(C)[c-](C)c1C` [Compound 6 a, Chlorido[1,2‐dimethyl‐3‐oxo‐κO‐pyridine‐4(1H)‐thionato‐κS](η^5‐1,2,3,4,5‐pentamethylcyclopentadienyl)iridium(III)] gave an IC50 (HCT‐116) of 138 ± 6 µM, an IC50 (A549 [1]) of 270 ± 17 µM and an IC50 (CH1/PA‐1 [2]) of 131 ± 14 µM. The “φ0 (chromatographic lipophilicity index)” value [3] was 5.75, the IC50 (A549 [4]) was 63 ± 6 µM and the IC50 (SW480 [5]; [9]) was 4.2 ± 0.2 µM. For the same molecule, the IC50 (SW480 [5]; SW480, as listed in Table 3) was 4.18 ± 0.19 µM, the IC50 (CH1/PA‐1 [6]) was 7 ± 1.6 µM and the “Cell cycle distribution G1, %” value (SW480 [7]; SW480, 2.5 µM) was 48 ± 2%. For the same molecule, the “Cell cycle distribution G2/M, %” value (SW480 [7]; SW480, 2.5 µM) was 19 ± 3%, the “Cell cycle distribution S, %” value (SW480 [7]; SW480, 2.5 µM) was 32 ± 1% and the “Relative change in cell cycle distribution G1, %” value (SW480 [7]; SW480, 2.5 µM) was 0%. For the same molecule, the “Relative change in cell cycle distribution G2/M, %” value (SW480 [7]; SW480, 2.5 µM) was 0%, the “Relative change in cell cycle distribution S, %” value (SW480 [7]; SW480, 2.5 µM) was -1% and the “Cell cycle distribution G1, %” value (SW480 [7]; SW480, 5 µM) was 41 ± 4%. The “Cell cycle distribution G2/M, %” value (SW480 [7]; SW480, 5 µM) was 26 ± 5%, the “Cell cycle distribution S, %” value (SW480 [7]; SW480, 5 µM) was 33 ± 9% and the “Relative change in cell cycle distribution G1, %” value (SW480 [7]; SW480, 5 µM) was -7%. For the same molecule, the “Relative change in cell cycle distribution G2/M, %” value (SW480 [7]; SW480, 5 µM) was 7%, the “Relative change in cell cycle distribution S, %” value (SW480 [7]; SW480, 5 µM) was 0% and the “Cell cycle distribution G1, %” value (SW480 [7]; SW480, 10 µM) was 42 ± 4%. For the same molecule, the “Cell cycle distribution G2/M, %” value (SW480 [7]; SW480, 10 µM) was 17 ± 3%, the “Cell cycle distribution S, %” value (SW480 [7]; SW480, 10 µM) was 42 ± 3% and the “Relative change in cell cycle distribution G1, %” value (SW480 [7]; SW480, 10 µM) was -6%. The “Relative change in cell cycle distribution G2/M, %” value (SW480 [7]; SW480, 10 µM) was -2%, the “Relative change in cell cycle distribution S, %” value (SW480 [7]; SW480, 10 µM) was 9% and the “Cell cycle distribution G1, %” value (CH1/PA‐1 [8]; CH1/PA-1, 10 µM) was 29 ± 3%. For the same molecule, the “Cell cycle distribution G2/M, %” value (CH1/PA‐1 [8]; CH1/PA-1, 10 µM) was 26 ± 4%, the “Cell cycle distribution S, %” value (CH1/PA‐1 [8]; CH1/PA-1, 10 µM) was 45 ± 8% and the “Relative change in cell cycle distribution G1, %” value (CH1/PA‐1 [8]; CH1/PA-1, 10 µM) was -11%. For the same molecule, the “Relative change in cell cycle distribution G2/M, %” value (CH1/PA‐1 [8]; CH1/PA-1, 10 µM) was 2%, the “Relative change in cell cycle distribution S, %” value (CH1/PA‐1 [8]; CH1/PA-1, 10 µM) was 9% and the “Cell cycle distribution G1, %” value (CH1/PA‐1 [8]; CH1/PA-1, 20 µM) was 33 ± 4%. For the same molecule, the “Cell cycle distribution G2/M, %” value (CH1/PA‐1 [8]; CH1/PA-1, 20 µM) was 26 ± 9%, the “Cell cycle distribution S, %” value (CH1/PA‐1 [8]; CH1/PA-1, 20 µM) was 41 ± 10% and the “Relative change in cell cycle distribution G1, %” value (CH1/PA‐1 [8]; CH1/PA-1, 20 µM) was -7%. The “Relative change in cell cycle distribution G2/M, %” value (CH1/PA‐1 [8]; CH1/PA-1, 20 µM) was 2%, the “Relative change in cell cycle distribution S, %” value (CH1/PA‐1 [8]; CH1/PA-1, 20 µM) was 5% and the “Cell cycle distribution G1, %” value (CH1/PA‐1 [8]; CH1/PA-1, 40 µM) was 28 ± 6%. The “Cell cycle distribution G2/M, %” value (CH1/PA‐1 [8]; CH1/PA-1, 40 µM) was 26 ± 4%, the “Cell cycle distribution S, %” value (CH1/PA‐1 [8]; CH1/PA-1, 40 µM) was 45 ± 5% and the “Relative change in cell cycle distribution G1, %” value (CH1/PA‐1 [8]; CH1/PA-1, 40 µM) was -12%. For the same molecule, the “Relative change in cell cycle distribution G2/M, %” value (CH1/PA‐1 [8]; CH1/PA-1, 40 µM) was 2%, the “Relative change in cell cycle distribution S, %” value (CH1/PA‐1 [8]; CH1/PA-1, 40 µM) was 9% and the “cellular concentration relative to 3 a” value (SW480 cells) was “about 47 times”. For the same molecule, the Cellular accumulation (SW480 cells) was 986±152 fg/cell.
